Like-named read-outs stand apart in the source and are kept apart here. Where a SMILES comes first, the peptide text is derived from it. [ ]: non-standard residue; d: D form. The star is where a group is joined. Nva = CCC[C@H](N)C(=O)O; Cbz = O=C(OCc1ccccc1)*; OtBu = CC(C)(C)O*
Assays:
[1] = test system: mouse BMP2 promoter; assay: High throughput screen (ABA assay): BMP2 promoter-luciferase reporter in 2T3-BMP-2-LUC osteoblast cells; assay type: cell-based; conditions: for activity in the high through-put assay compared with simvastatin: Example 6; for EC50: read-out: Luciferase Activity (ED50-μM)
Description: 1995, the entire contents of which are incorporated herein by reference. This assay is also described as a portion of a study of immortalized murine osteoblasts (derived from a mouse expressing a transgene composed of a BMP2 promoter driving expression of T-antigen) in Ghosh-Choudhery, N., et al., Endocrinology (1996) 137:331-39. In this study, the immortalized cells were stably transfected with a plasmid containing a luciferase reporter gene driven by a mouse BMP2 promoter (−2736/114 bp), and responded in a dose-dependent manner to recombinant human BMP2.
Briefly, the assay utilizes cells transformed permanently or transiently with constructs in which the promoter of a bone morphogenetic protein, specifically BMP2 or BMP4, is coupled to a reporter gene, typically luciferase. These transformed cells are then evaluated for the production of the reporter gene product; compounds that activate the BMP promoter will drive production of the reporter protein, which can be readily assayed. Many thousands of compounds have been subjected to this rapid screening technique, and only a very small percentage are able to elicit a level of expression of reporter gene 5-fold greater than that produced by vehicle. […] The active compounds (“BMP promoter-active compounds” or “active compounds”) are useful in promoting bone or cartilage growth, and thus in the treatment of vertebrates in need of bone or cartilage growth.
Thousands of compounds have been tested in the assay system set forth in U.S. Ser. No. 08/458,434, filed 2 Jun. 1995, and incorporated herein by reference. […] In this screen, the standard positive control was the compound 59-0008 (also denoted “OS8”), which is of the formula: [drawing 22]
In more detail, the 2T3-BMP-2-LUC cells, a stably transformed osteoblast cell line described in Ghosh-Choudhury et al. Endocrinology (1996) 137:331-39, referenced above, was employed. The cells were cultured using α-MEM, 10% FCS with 1% penicillin/streptomycin and 1% glutamine (“plating medium”), and were split 1:5 once per week. For the assay, the cells were resuspended in a plating medium containing 4% FCS, plated in microtiter plates at a concentration of 5×10^3 cells (in 50 μl)/well, and incubated for 24 hours at 37° C. in 5% CO2. To initiate the assay, 50 μl of the test compound or the control in DMSO was added at 2× concentration to each well, so that the final volume was 100 μl. The final serum concentration was 2% FCS, and the final DMSO concentration was 1%. Compound 59-0008 (10 μM) was used as a positive control.
The treated cells were incubated for 24 hours at 37° C. and 5% CO2. The medium was then removed, and the cells were rinsed three times with PBS. After removal of excess PBS, 25 μl of 1× cell culture lysing reagent (Promega #E153A) was added to each well and incubated for at least ten minutes. Optionally, the plates/samples could be frozen at this point. To each well was added 50 μl of luciferase substrate (Promega #E152A; 10 ml Promega luciferase assay buffer per 7 mg Promega luciferase assay substrate). Luminescence was measured on an automated 96-well luminometer, and was expressed as either picograms of luciferase activity per well or as picograms of luciferase activity per microgram of protein.
Accordingly, other tested compounds can be evaluated at various concentrations, and the results compared to the results obtained for 59-0008 at 10 μM (which value would be normalized to 100). Alternatively, the reactivity of a compound to be tested can be compared directly to a negative control containing no compound.

[2] = test system: hair follicles; assay: Induction of anagen in hair follicles in vivo (Example 12); design: species or system C57 black mice; conditions: for hair follicle differentiation in vivo: examined 16 days later
Procedure: Inhibitors of the proteasomal chymotrypsin-like activity were treated for their capacity to induce transit of hair follicles into anagen in vivo in C57 black mice eight weeks of age.

[3] = test system: hair follicles; assay: Hair follicle number after injection over the calvaria (Example 8); assay type: in vivo, Swiss ICR mice; conditions: for number of hair follicles: administered in the same way
Description: The assay described above to assess the effect of compounds on calvarial bone growth can also be used to assess the ability of compounds to stimulate hair growth. The test compound or appropriate control vehicle is applied to the upper and lower back of male ICR Swiss white mice either topically or by subcutaneous injection. The vehicle is selected as appropriate for the compound to be tested and for the route of administration. Optionally, the hair in the test area may be removed prior to administration. After a suitable interval, typically 7 days, the mice are anesthetized and a biopsy of the dorsal treatment area is taken using a 6 mm dermal punch. The specimens are fixed in 10% buffered formalin and imbedded in paraffin wax, and sectioned and stained to observe hair follicles. In addition, photography can be used to observe and record hair growth; typically such growth is observed after 14-18 days. After a suitable interval, typically 21 days, the animals may be euthanized and the hair analyzed for fiber analysis and the tissue from the treatment area analyzed for quantitation of hair follicles.
In more detail, male ICR Swiss white mice, aged 4-6 weeks and weighing 13-26 gm, are employed, using 4-5 mice per group. The calvarial bone growth assay is performed as described above. Briefly, the test compound or appropriate control vehicle is injected into the subcutaneous tissue over the right calvaria of normal mice. Typically, the control vehicle is the vehicle in which the compound was solubilized, and is PBS containing 5% DMSO or is PBS containing Tween (2 μl/10 ml). The animals are sacrificed on day 14 and bone growth measured by histomorphometry. Bone samples for quantitation are cleaned from adjacent tissues and fixed in 10% buffered formalin for 24-48 hours, decalcified in 14% EDTA for 1-3 weeks, processed through graded alcohols; and embedded in paraffin wax. Three to five […] sections of the calvaria are prepared, and representative sections are selected for histomorphometric assessment of the effects on bone formation and bone resorption. Sections are measured by using a camera lucida attachment to trace directly the microscopic image onto a digitizing plate. Bone changes are measured on sections cut 200 μm apart, over 4 adjacent 1×1 mm fields on both the injected and noninjected sides of the calvaria. New bone is identified by its characteristic woven structure, and osteoclasts and osteoblasts are identified by their distinctive morphology. Histomorphometry software (OsteoMeasure, Osteometrix, Inc., Atlanta) is used to process digitizer input to determine cell counts and measure areas or perimeters.
The in vivo bone calvarial growth assay of Example 3 was modified to observe the number of hair follicles in treated mice. […]

Compound | activity in the high through-put assay compared with simvastatin [1] | Luciferase activity/well ([1]; dose 0.000625 μM) | Luciferase activity/well ([1]; dose 0.00125 μM) | Luciferase activity/well ([1]; dose 0.0025 μM) | Luciferase activity/well ([1]; dose 0.005 μM) | Luciferase activity/well ([1]; dose 0.01 μM) | Luciferase activity/well ([1]; dose 0.02 μM) | Luciferase activity/well ([1]; dose 0.04 μM) | Luciferase activity/well ([1]; dose 0.08 μM) | response in the high throughput luciferase screen [1] | EC50 ([1]; Mus musculus, Osteoblast) [µM] | number of hair follicles ([3]; 10 mg/kg) | also measured
CC[C@H](C)[C@H](NC(=O)[C@H]([C@@H](C)CC)N(C)C(C)=O)C(=O)N[C@H](C(=O)N[C@@H](CC(C)C)C(=O)[C@@]1(C)CO1)[C@@H](C)O [Epoxomicin] | more active than simvastatin | 0.07 | 0.07 | 0.08 | 0.10 | 0.14 | 0.17 | 0.20 | 0.21 | – | – | – | hair follicle differentiation in vivo ([2]; dose not given, subcutaneously in the scalp daily for 5 days): increased hair follicle differentiation in vivo
CC(=O)N[C@@H](CSC(=O)[C@]1([C@@H](O)C(C)C)NC(=O)[C@H](C)[C@@H]1O)C(=O)O [Lactacystin, lactacystin] | – | – | – | – | – | – | – | – | – | Positive responses | 1 | – | number of hair follicles ([3]; dose not given): stimulated an increase in the number of hair follicles
CCC[C@@H](C=O)NC(=O)[C@H](CC(C)C)NC(=O)[C@H](CC(C)C)NC(=O)OCc1ccccc1 [MG-115, N-carbobenzoyl-Leu-Leu-Nva-CHO] (Cbz-Leu-Leu-[Nva]-aldehyde) | – | – | – | – | – | – | – | – | – | high activity | 2 | stimulated an increase in the number of hair follicles | –
CC(C)C[C@@H](C=O)NC(=O)[C@@H](CC(C)C)NC(=O)[C@H](CC(C)C)NC(=O)OCc1ccccc1 [MG-132, N-carbobenzoyl-Leu-Leu-Leu-CHO] (Cbz-Leu-[dL]-Leu-aldehyde) | – | – | – | – | – | – | – | – | – | high activity | 0.25 | stimulated an increase in the number of hair follicles | –
CC[C@H](C)[C@H](NC(=O)OCc1ccccc1)C(=O)N[C@@H](CCC(=O)OC(C)(C)C)C(=O)N[C@@H](C)C(=O)N[C@H](C=O)CC(C)C [PSI, N-carbobenzoyl-Ile-Glu-(OtBu)-Ala-Leu-CHO] (Cbz-IE(OtBu)AL-aldehyde) | more active than simvastatin | 0.07 | 0.08 | 0.07 | 0.08 | 0.08 | 0.09 | 0.12 | 0.18 | – | 0.05 | – | hair follicle differentiation in vivo ([2]; 5 mg/kg/day subcutaneously in the scalp daily for 5 days): increased hair follicle differentiation in vivo; number of hair follicles versus control mice ([3]; 5mg/kg/day injected three times a day for 5 days over the calvaria, sacrificed sixteen days later): strikingly large increase in the number of hair follicles
simvastatin | – | 0.07 | 0.07 | 0.065 | 0.07 | 0.07 | 0.07 | 0.07 | 0.07 | good response | – | – | Luciferase activity/well ([1]; dose 0.16 μM): 0.07; Luciferase activity/well ([1]; dose 0.32 μM): 0.07; Luciferase activity/well ([1]; dose 0.625 μM): 0.09; Luciferase activity/well ([1]; dose 1.25 μM): 0.11; Luciferase activity/well ([1]; dose 2.5 μM): 0.14; Luciferase activity/well ([1]; dose 5 μM): 0.15; Luciferase activity/well ([1]; dose 10 μM): 0.15; EC50 [1]: 0.2 µM; effect on hair follicles ([2]; injected locally into the subcutaneous tissue in sufficient concentrations to cause local periosteal bone formation): had no effect on hair follicles

Source: patent publication US6838436B1, “Inhibitors of proteasomal activity for stimulating bone growth” (Osteoscreen Inc., priority 1998, dated 2005)
